# Source: patent US4529731A, “Thiadiazolediamine derivative with histamine H-2 receptor inhibiting properties” (American Home Products Corporation, priority 1983, dated 1985)
# “Also recorded” adds a separate entry of the source.
# Tests used:
# [1] = system: spontaneous gastric acid secretion in cannulated rats; experiment: inhibiting spontaneous gastric acid secretion in cannulated rats; assay type: in vivo, Male albino Sprague Dawley rats; conditions: for time after which a significant response ceases: cimetidine 80 mg/kg, ranitidine 60 mg/kg
# From the text: Male albino Sprague Dawley rats (200-300 g), purchased from Canadian Breeding Laboratories, were employed. Two gastric cannulas were implanted surgically in each rat as described by L. E. Borella and F. Herr, Gastroenterology, 61, 345 (1971). The rats were used two to three weeks after the operation at a time when their food intake and weight gain were similar to the food intake and weight gain of unoperated litter mates. […] Prior to each experiment, the plugs of the stomach cannulas of each rat were removed and the debris present in the stomach was flushed out with tepid saline passed through the cannulas. Thereafter, the lumen of the stomach was continuously perfused with saline introduced into the stomach through the forestomach cannula at a rate of 0.8-1.2 ml/min. […] On the basis of the hourly acid output, the rats were divided into equal groups so that the average acid output of all groups was similar. Saline (vehicle) or saline suspensions or solutions of the test compounds were administered intragastrically (i.g.) through the forestomach cannula, after having closed the antral cannula. During the one hour absorption period, the stomachs of the rats were not perfused. […] The average post-treatment hourly acid outputs of the test compound groups were compared to that of the saline group and the percent inhibition of acid output was calculated. Multiple statistical comparisons between groups was done using Dunnet's test, C. W. Dunnet, Journal of American Statistical Association, 50, 1096 (1955).
# [2] = toxicity (statement in words)
# [3] = system: cold-restraint-induced gastric lesions; experiment: development of cold-restraint-induced gastric lesions (ulcers); assay type: in vivo, male albino rats (Sprague-Dawley); conditions: p.o.; for ULCER SCORE (MEAN ± S.E.): number of ulcers in glandular stomach
# Method: Senay and R. J. Levine, Proc. Soc. Exp. Biol. Med., 124, 1221 (1967).
# More explicitly exemplified, the beneficial effects were evaluated as follow: Food was withheld from male albino rats (165-175 g, Sprague-Dawley, Canadian Breeding Laboratories) for 24 hours but water was freely available. The object compound was administered orally in one milliliter of a liquid vehicle to the animals 30 minutes before placing the animals into restrainers. Just prior to being restrained, each animal was given orally 50 mg of sodium taurocholate. The vehicle empoloyed was saline containing polysorbate 80 (oleate ester of sorbitol and its anhydrides copolymerized with ethylene oxide), one drop per five milliliters of saline. The restrainers were made of plexiglass and restricted the movement of the rat to a minimum. The restrainers were placed in a cold environment (4°-5° C.) for three hours. The animals were sacrificed by cervical dislocation, the stomachs removed and the number of ulcers in the glandular portion of the stomach determined.
# [4] = system: histamine H-2 receptors; experiment: inhibition of histamine H-2 receptors (statement in words)
# [5] = 1 hr after dosing, peroral, object compound 80, cimetidine 80, ranitidine 60 mg/kg
# [6] = 2 hr after dosing, peroral, object compound 80, cimetidine 80, ranitidine 60 mg/kg
# [7] = 3 hr after dosing, peroral, object compound 80, cimetidine 80, ranitidine 60 mg/kg
# [8] = 4 hr after dosing, peroral, object compound 80, cimetidine 80, ranitidine 60 mg/kg, cimetidine value = last statistically significant (*)
# [9] = 5 hr after dosing, peroral, object compound 80, cimetidine 80, ranitidine 60 mg/kg, ranitidine value = last statistically significant (*)
# [10] = 6 hr after dosing, peroral, object compound 80, ranitidine 60 mg/kg
# [11] = 7 hr after dosing, peroral, object compound 80, ranitidine 60 mg/kg
compound,measurement,setting,value
"CNC(=C[N+](=O)[O-])NCCSCc1ccc(CN(C)C)o1 [ranitidine, reference compound]",% INHIBITION OF ACID OUTPUT AT VARIOUS TIMES (HR) AFTER DOSING,[1]; [5],69%
same,% INHIBITION OF ACID OUTPUT AT VARIOUS TIMES (HR) AFTER DOSING,[1]; [6],81%
same,% INHIBITION OF ACID OUTPUT AT VARIOUS TIMES (HR) AFTER DOSING,[1]; [7],65%
same,% INHIBITION OF ACID OUTPUT AT VARIOUS TIMES (HR) AFTER DOSING,[1]; [8],63%
same,% INHIBITION OF ACID OUTPUT AT VARIOUS TIMES (HR) AFTER DOSING,[1]; [9],44%
same,% INHIBITION OF ACID OUTPUT AT VARIOUS TIMES (HR) AFTER DOSING,[1]; [10],39%
same,% INHIBITION OF ACID OUTPUT AT VARIOUS TIMES (HR) AFTER DOSING,[1]; [11],6%
same,time after which a significant response ceases,[1]; peroral,6 h
"CN/C(=N/CCSCc1nc[nH]c1C)NC#N [cimetidine, reference compound]",% INHIBITION OF ACID OUTPUT AT VARIOUS TIMES (HR) AFTER DOSING,[1]; [5],84%
same,% INHIBITION OF ACID OUTPUT AT VARIOUS TIMES (HR) AFTER DOSING,[1]; [6],84%
same,% INHIBITION OF ACID OUTPUT AT VARIOUS TIMES (HR) AFTER DOSING,[1]; [7],63%
same,% INHIBITION OF ACID OUTPUT AT VARIOUS TIMES (HR) AFTER DOSING,[1]; [8],52%
same,% INHIBITION OF ACID OUTPUT AT VARIOUS TIMES (HR) AFTER DOSING,[1]; [9],3%
same,time after which a significant response ceases,[1]; peroral,5 h
"CN(C)CCNc1n[s+]([O-])nc1NCCCOc1cccc(CN2CCCCC2)c1 (stereo not shown) [Object compound, N-[2-(dimethylamino)ethyl]-N'-[3-[3-[(1-piperidinyl)methyl]phenoxy]propyl]-1,2,5-thiadiazole-3,4-diamine, 1-oxide]",order of toxicity,[2],relatively low order of toxicity
same,% INHIBITION OF ACID OUTPUT AT VARIOUS TIMES (HR) AFTER DOSING,[1]; [5],88%
same,% INHIBITION OF ACID OUTPUT AT VARIOUS TIMES (HR) AFTER DOSING,[1]; [6],95%
same,% INHIBITION OF ACID OUTPUT AT VARIOUS TIMES (HR) AFTER DOSING,[1]; [7],96%
same,% INHIBITION OF ACID OUTPUT AT VARIOUS TIMES (HR) AFTER DOSING,[1]; [8],95%
same,% INHIBITION OF ACID OUTPUT AT VARIOUS TIMES (HR) AFTER DOSING,[1]; [9],94%
same,% INHIBITION OF ACID OUTPUT AT VARIOUS TIMES (HR) AFTER DOSING,[1]; [10],85%
same,% INHIBITION OF ACID OUTPUT AT VARIOUS TIMES (HR) AFTER DOSING,[1]; [11],61%
same,% INHIBITION OF ACID OUTPUT AT VARIOUS TIMES (HR) AFTER DOSING,"[1]; 8 hr after dosing, peroral, object compound 80 mg/kg",52%
same,% INHIBITION OF ACID OUTPUT AT VARIOUS TIMES (HR) AFTER DOSING,"[1]; 9 hr after dosing, peroral, object compound 80 mg/kg",63%
same,% INHIBITION OF ACID OUTPUT AT VARIOUS TIMES (HR) AFTER DOSING,"[1]; 10 hr after dosing, peroral, object compound 80 mg/kg",64%
same,% INHIBITION OF ACID OUTPUT AT VARIOUS TIMES (HR) AFTER DOSING,"[1]; 18 hr after dosing, peroral, object compound 80 mg/kg",32%
same,% INHIBITION OF ACID OUTPUT AT VARIOUS TIMES (HR) AFTER DOSING,"[1]; 19 hr after dosing, peroral, object compound 80 mg/kg, last statistically significant value (*)",29%
same,% INHIBITION OF ACID OUTPUT AT VARIOUS TIMES (HR) AFTER DOSING,"[1]; 20 hr after dosing, peroral, object compound 80 mg/kg",7%
same,% INHIBITION OF 3 HOURS GASTRIC ACID OUTPUT,"[1]; peroral dose 20 mg/kg, rat",36%
same,% INHIBITION OF 3 HOURS GASTRIC ACID OUTPUT,"[1]; peroral dose 40 mg/kg, rat",65%
same,% INHIBITION OF 3 HOURS GASTRIC ACID OUTPUT,"[1]; peroral dose 80 mg/kg, rat",74%
same,duration of effect compared with cimetidine and ranitidine,"[1]; peroral, object compound 80, cimetidine 80, ranitidine 60 mg/kg",longer acting effect
same,duration of action,"[1]; rat, in vivo",long acting properties
same,% INHIBITION (ulcer score),[3]; 1 mg/kg,44%
same,ULCER SCORE (MEAN ± S.E.),[3]; 1 mg/kg,10 ± 9
same,% INHIBITION (ulcer score),"[3]; 5 mg/kg, * p < 0.05",89%
same,ULCER SCORE (MEAN ± S.E.),[3]; 5 mg/kg,2 ± 1
same,% INHIBITION (ulcer score),"[3]; 20 mg/kg, ** p < 0.01",95%
same,ULCER SCORE (MEAN ± S.E.),[3]; 20 mg/kg,0.9 ± 0.5
same,inhibition of histamine H-2 receptors,[4],effective inhibitor of histamine H-2 receptors; also recorded: specifically inhibits H-2 histamine receptors
